Patent US20240299359A1, “PHARMACEUTICAL COMPOSITION FOR ANIMALS CONTAINING 5-HYDROXY-METHYLIMIDAZOLIDINE-2,4-DIONE COMPOUND AS ACTIVE INGREDIENT” (KYONGBO PHARM. CO., LTD., priority 2021, published 2024)
Where “and” joins values, the source holds several entries; their conditions need not be identical. Equal entries are not always repeated.

Test: 13-week repeated oral toxicity: weight measurement
Type: in vivo, beagle
Method: During the 13-week test period starting from the day before administration, the weight was measured a total of 15 times before administration (pre), before administration on the day of administration, and every week over the 13-week test period after the first administration at a predetermined time (remaining feed measurement time) before administration of the test substance (on every Tuesday during the test period).

Q: Which results are given for CN1C(=O)NC(=O)C1O (centres unmarked) [KBP-001, 5-hydroxy-1-methylimidazolidine-2,4-dione]?
A: Weight (200 mg/kg repeated oral (G2), female, week 0, individual animals): 9.6 (2×) and 9.1; Weight, Mean (200 mg/kg repeated oral (G2), female, week 0, mean): 9.4 kg; Weight (200 mg/kg repeated oral (G2), female, week 1, individual animals, in kg (unit assumed)): 9.5 and 9.3 and 9.9; Weight, Mean (200 mg/kg repeated oral (G2), female, week 1, mean): 9.6 kg; Weight (200 mg/kg repeated oral (G2), female, week 2, individual animals, in kg (unit assumed)): 9.4 and 9.2 and 9.8; Weight, Mean (200 mg/kg repeated oral (G2), female, week 2, mean): 9.5 kg; Weight (200 mg/kg repeated oral (G2), female, week 3, individual animals, in kg (unit assumed)): 9.4 and 9.1 and 9.9; Weight, Mean (200 mg/kg repeated oral (G2), female, week 3, mean): 9.5 kg; Weight (200 mg/kg repeated oral (G2), female, week 4, individual animals, in kg (unit assumed)): 9.7 and 9.4 and 9.9; Weight, Mean (200 mg/kg repeated oral (G2), female, week 4, mean): 9.7 kg; Weight (200 mg/kg repeated oral (G2), female, week 5, individual animals, in kg (unit assumed)): 9.7 and 9.4 and 9.9; Weight, Mean (200 mg/kg repeated oral (G2), female, week 5, mean): 9.7 kg; Weight (200 mg/kg repeated oral (G2), female, week 6, individual animals): 9.6 (2×) and 9.1; Weight, Mean (200 mg/kg repeated oral (G2), female, week 6, mean): 9.4 kg; Weight (200 mg/kg repeated oral (G2), female, week 7, individual animals, in kg (unit assumed)): 9.6 and 9.3 and 9.7; Weight, Mean (200 mg/kg repeated oral (G2), female, week 7, mean): 9.5 kg; Weight (200 mg/kg repeated oral (G2), female, week 8, individual animals, in kg (unit assumed)): 9.5 and 9.3 and 9.8; Weight, Mean (200 mg/kg repeated oral (G2), female, week 8, mean): 9.5 kg; Weight (200 mg/kg repeated oral (G2), female, week 9, individual animals, in kg (unit assumed)): 9.6 and 9.4 and 9.9; Weight, Mean (200 mg/kg repeated oral (G2), female, week 9, mean): 9.6 kg; Weight (200 mg/kg repeated oral (G2), female, week 10, individual animals, in kg (unit assumed)): 9.6 and 9.3 and 10.0; Weight, Mean (200 mg/kg repeated oral (G2), female, week 10, mean): 9.6 kg; Weight (200 mg/kg repeated oral (G2), female, week 11, individual animals): 9.5 (2×) and 10.1; Weight, Mean (200 mg/kg repeated oral (G2), female, week 11, mean): 9.7 kg; Weight (200 mg/kg repeated oral (G2), female, week 12, individual animals, in kg (unit assumed)): 9.6 and 9.5 and 10.0; Weight, Mean (200 mg/kg repeated oral (G2), female, week 12, mean): 9.7 kg; Weight (200 mg/kg repeated oral (G2), female, week 13, individual animals, in kg (unit assumed)): 9.7 and 9.5 and 10.2; Weight, Mean (200 mg/kg repeated oral (G2), female, week 13, mean): 9.8 kg; Weight (200 mg/kg repeated oral (G2), female, week pre, individual animals): 9.6 (2×) and 9.1; Weight, Mean (200 mg/kg repeated oral (G2), female, week pre, mean): 9.4 kg; Weight (200 mg/kg repeated oral (G2), male, week 0, individual animals): 10.1 (2×) and 10.2; Weight, Mean (200 mg/kg repeated oral (G2), male, week 0, mean): 10.1 kg; Weight (200 mg/kg repeated oral (G2), male, week 1, individual animals): 10.1 (2×) and 10.2; Weight, Mean (200 mg/kg repeated oral (G2), male, week 1, mean): 10.1 kg; Weight (200 mg/kg repeated oral (G2), male, week 2, individual animals, in kg (unit assumed)): 9.9 and 10.1 and 10.0; Weight, Mean (200 mg/kg repeated oral (G2), male, week 2, mean): 10 kg; Weight (200 mg/kg repeated oral (G2), male, week 3, individual animals): 10.0 and 10.1 (2×); Weight, Mean (200 mg/kg repeated oral (G2), male, week 3, mean): 10.1 kg; Weight (200 mg/kg repeated oral (G2), male, week 4, individual animals): 10.0 and 10.3 (2×); Weight, Mean (200 mg/kg repeated oral (G2), male, week 4, mean): 10.2 kg; Weight (200 mg/kg repeated oral (G2), male, week 5, individual animals, in kg (unit assumed)): 10.1 and 10.5 and 10.3; Weight, Mean (200 mg/kg repeated oral (G2), male, week 5, mean): 10.3 kg; Weight (200 mg/kg repeated oral (G2), male, week 6, individual animals, in kg (unit assumed)): 10.0 and 10.1 and 10.3; Weight, Mean (200 mg/kg repeated oral (G2), male, week 6, mean): 10.1 kg; Weight (200 mg/kg repeated oral (G2), male, week 7, individual animals): 10.1 and 10.3 (2×); Weight, Mean (200 mg/kg repeated oral (G2), male, week 7, mean): 10.2 kg; Weight (200 mg/kg repeated oral (G2), male, week 8, individual animals, in kg (unit assumed)): 10.1 and 10.3 and 10.2; Weight, Mean (200 mg/kg repeated oral (G2), male, week 8, mean): 10.2 kg; Weight (200 mg/kg repeated oral (G2), male, week 9, individual animals, in kg (unit assumed)): 10.1 and 10.4 and 10.3; Weight, Mean (200 mg/kg repeated oral (G2), male, week 9, mean): 10.3 kg; Weight (200 mg/kg repeated oral (G2), male, week 10, individual animals, in kg (unit assumed)): 10.2 and 10.4 and 10.3; Weight, Mean (200 mg/kg repeated oral (G2), male, week 10, mean): 10.3 kg; Weight (200 mg/kg repeated oral (G2), male, week 11, individual animals, in kg (unit assumed)): 10.1 and 10.4 and 10.3; Weight, Mean (200 mg/kg repeated oral (G2), male, week 11, mean): 10.3 kg; Weight (200 mg/kg repeated oral (G2), male, week 12, individual animals): 10.2 (2×) and 10.4; Weight, Mean (200 mg/kg repeated oral (G2), male, week 12, mean): 10.3 kg; Weight (200 mg/kg repeated oral (G2), male, week 13, individual animals): 10.2 (2×) and 10.4; Weight, Mean (200 mg/kg repeated oral (G2), male, week 13, mean): 10.3 kg; Weight (200 mg/kg repeated oral (G2), male, week pre, individual animals, in kg (unit assumed)): 10.1 and 10.3 and 10.2; Weight, Mean (200 mg/kg repeated oral (G2), male, week pre, mean): 10.2 kg; Weight, Mean (500 mg/kg repeated oral (G3), female, week 0, mean): 9.5 kg; Weight, Mean (500 mg/kg repeated oral (G3), female, week 1, mean): 9.6 kg; Weight, Mean (500 mg/kg repeated oral (G3), female, week 2, mean): 9.5 kg; Weight, Mean (500 mg/kg repeated oral (G3), female, week 3, mean): 9.6 kg; Weight, Mean (500 mg/kg repeated oral (G3), female, week 4, mean): 9.8 kg; Weight, Mean (500 mg/kg repeated oral (G3), female, week 5, mean): 9.8 kg; Weight, Mean (500 mg/kg repeated oral (G3), female, week 6, mean): 9.8 kg; Weight, Mean (500 mg/kg repeated oral (G3), female, week 7, mean): 9.8 kg; Weight, Mean (500 mg/kg repeated oral (G3), female, week 8, mean): 9.8 kg; Weight, Mean (500 mg/kg repeated oral (G3), female, week 9, mean): 9.8 kg; Weight, Mean (500 mg/kg repeated oral (G3), female, week 10, mean): 9.8 kg; Weight, Mean (500 mg/kg repeated oral (G3), female, week 11, mean): 9.9 kg; Weight, Mean (500 mg/kg repeated oral (G3), female, week 12, mean): 9.9 kg; Weight, Mean (500 mg/kg repeated oral (G3), female, week 13, mean): 10 kg; Weight, Mean (500 mg/kg repeated oral (G3), female, week pre, mean): 9.5 kg; Weight (500 mg/kg repeated oral (G3), male, week 0, individual animals, in kg (unit assumed)): 10.0; Weight, Mean (500 mg/kg repeated oral (G3), male, week 0, mean): 9.9 kg; Weight, Mean (500 mg/kg repeated oral (G3), male, week 1, mean): 10 kg; Weight, Mean (500 mg/kg repeated oral (G3), male, week 2, mean): 9.9 kg; Weight, Mean (500 mg/kg repeated oral (G3), male, week 3, mean): 9.9 kg; Weight, Mean (500 mg/kg repeated oral (G3), male, week 4, mean): 10 kg; Weight, Mean (500 mg/kg repeated oral (G3), male, week 5, mean): 10.1 kg; Weight (500 mg/kg repeated oral (G3), male, week 6, individual animals, in kg (unit assumed)): 10.1; Weight, Mean (500 mg/kg repeated oral (G3), male, week 6, mean): 10.1 kg; Weight (500 mg/kg repeated oral (G3), male, week 7, individual animals, in kg (unit assumed)): 10.1; Weight, Mean (500 mg/kg repeated oral (G3), male, week 7, mean): 10.1 kg; Weight (500 mg/kg repeated oral (G3), male, week 8, individual animals, in kg (unit assumed)): 10.3; Weight, Mean (500 mg/kg repeated oral (G3), male, week 8, mean): 10.1 kg; Weight (500 mg/kg repeated oral (G3), male, week 9, individual animals, in kg (unit assumed)): 10.4; Weight, Mean (500 mg/kg repeated oral (G3), male, week 9, mean): 10.1 kg; Weight (500 mg/kg repeated oral (G3), male, week 10, individual animals, in kg (unit assumed)): 10.4; Weight, Mean (500 mg/kg repeated oral (G3), male, week 10, mean): 10.2 kg; Weight (500 mg/kg repeated oral (G3), male, week 11, individual animals, in kg (unit assumed)): 10.4; Weight, Mean (500 mg/kg repeated oral (G3), male, week 11, mean): 10.1 kg; Weight (500 mg/kg repeated oral (G3), male, week 12, individual animals, in kg (unit assumed)): 10.3; Weight, Mean (500 mg/kg repeated oral (G3), male, week 12, mean): 10.2 kg; Weight (500 mg/kg repeated oral (G3), male, week 13, individual animals, in kg (unit assumed)): 10.5; Weight, Mean (500 mg/kg repeated oral (G3), male, week 13, mean): 10.3 kg; Weight (500 mg/kg repeated oral (G3), male, week pre, individual animals, in kg (unit assumed)): 10.1; Weight, Mean (500 mg/kg repeated oral (G3), male, week pre, mean): 10 kg; Weight, Mean (1,000 mg/kg repeated oral (G4), female, week 0, mean): 9.4 kg; Weight, Mean (1,000 mg/kg repeated oral (G4), female, week 1, mean): 9.4 kg; Weight, Mean (1,000 mg/kg repeated oral (G4), female, week 2, mean): 9.3 kg; Weight, Mean (1,000 mg/kg repeated oral (G4), female, week 3, mean): 9.4 kg; Weight, Mean (1,000 mg/kg repeated oral (G4), female, week 4, mean): 9.6 kg; Weight, Mean (1,000 mg/kg repeated oral (G4), female, week 5, mean): 9.5 kg; Weight, Mean (1,000 mg/kg repeated oral (G4), female, week 6, mean): 9.4 kg; Weight, Mean (1,000 mg/kg repeated oral (G4), female, week 7, mean): 9.4 kg; Weight, Mean (1,000 mg/kg repeated oral (G4), female, week 8, mean): 9.5 kg; Weight, Mean (1,000 mg/kg repeated oral (G4), female, week 9, mean): 9.7 kg; Weight, Mean (1,000 mg/kg repeated oral (G4), female, week 10, mean): 0.8 kg; Weight, Mean (1,000 mg/kg repeated oral (G4), female, week 11, mean): 9.8 kg; Weight, Mean (1,000 mg/kg repeated oral (G4), female, week 12, mean): 9.8 kg; Weight, Mean (1,000 mg/kg repeated oral (G4), female, week 13, mean): 9.8 kg; Weight, Mean (1,000 mg/kg repeated oral (G4), female, week pre, mean): 9.4 kg; Weight, Mean (1,000 mg/kg repeated oral (G4), male, week 0, mean): 10.2 kg; Weight, Mean (1,000 mg/kg repeated oral (G4), male, week 1, mean): 10.2 kg; Weight, Mean (1,000 mg/kg repeated oral (G4), male, week 2, mean): 10.1 kg; Weight, Mean (1,000 mg/kg repeated oral (G4), male, week 3, mean): 10 kg; Weight, Mean (1,000 mg/kg repeated oral (G4), male, week 4, mean): 10.2 kg; Weight, Mean (1,000 mg/kg repeated oral (G4), male, week 5, mean): 10.3 kg; Weight, Mean (1,000 mg/kg repeated oral (G4), male, week 6, mean): 10 kg; Weight, Mean (1,000 mg/kg repeated oral (G4), male, week 7, mean): 10.1 kg; Weight, Mean (1,000 mg/kg repeated oral (G4), male, week 8, mean): 10.1 kg; Weight, Mean (1,000 mg/kg repeated oral (G4), male, week 9, mean): 10.2 kg; Weight, Mean (1,000 mg/kg repeated oral (G4), male, week 10, mean): 10.2 kg; Weight, Mean (1,000 mg/kg repeated oral (G4), male, week 11, mean): 10.2 kg; Weight, Mean (1,000 mg/kg repeated oral (G4), male, week 12, mean): 10.2 kg; Weight, Mean (1,000 mg/kg repeated oral (G4), male, week 13, mean): 10.2 kg; Weight, Mean (1,000 mg/kg repeated oral (G4), male, week pre, mean): 10.2 kg; weight compared with control group (repeated oral once a day for 13 weeks, male and female): no significant differences in weight from the control group was observed
